Experimental data from patent EP2439195B1, “NAPHTHALENE CARBOXAMIDE DERIVATIVES AS INHIBITORS OF PROTEIN KINASE AND HISTONE DEACETYLASE, PREPARATION METHODS AND USES THEREOF” (Shenzhen Chipscreen Biosciences, Ltd., priority 2009, dated 2010).

Key:
human PDGFRβ = biological target: T1, human PDGFRβ (Homo sapiens, UniProt P09619); assay: PDGF dependent cell proliferation (MTS); format: cell-based; settings: PDGFRβ NIH-3T3 cells, PDGF BB (50ng/ml), 72 hours, serum-free medium; read-out: Gl50 nM (PDGF ligand-dependent cell proliferation)
T1 construct: expressed in transfected cells
Description: NIH-3T3 mouse fibroblasts cell line engineered to stably express human PDGFRβ was constructed and used to evaluate PDGF dependent cell proliferation. PDGFRβ NIH-3T3 cells were plated into 96-well plates at 5,000 per well and incubated overnight with serum-free medium after 24 hours. Compounds to be tested and PDGF BB (50ng/ml) were added and incubated for 72 hours in serum-free medium. The effects on proliferation were determined by MTS method (Promega) according to the instruction. Incubation was performed for 2 hours at 37°C in CO2 incubator, and absorbance at 490nm was measured using an ELISA plate reader.

HUVEC cells = assay: VEGF dependent cell proliferation (MTS); format: cell-based; settings: Homo sapiens, VEGF 165 (50ng/ml), 72 hours, serum-free medium, read-out: Gl50 nM (VEGF ligand-dependent cell proliferation)
Description: HUVEC cells were plated into 96-well plates at 6,000 per well and after 24 hours incubated with serum-free medium for 2 hours. Compounds to be tested and VEGF 165 (50ng/ml) were added and incubated for 72 hours in serum-free medium. The effects on cell proliferation were determined by MTS method (Promega) according to the instruction. Incubation was performed for 2 hours at 37°C in CO2 incubator, and absorbance at 490nm was determined using an ELISA plate reader.

total HDAC enzyme = assay: In vitro total HDAC enzyme activity (HDAC Fluorimetric Assay/Drug Discovery Kit, HeLa cell nuclear extract); format: biochemical
Description: The in vitro total HDAC enzyme activity was determined by HDAC Fluorimetric Assay/Drug Discovery Kit (BIOMOL) according to manufacture's instruction. The principle of the experiment is as follows: under the action of histone deacetylase (in the experiment, HeLa cell nuclear extract, which was rich in a variety of subtypes of HDAC, was used), an acetyl group is removed from a special substrate Fluor de Lys, thus the free amino is exposed. Upon Developer is added, the substrate will produce fluorescence. For the fluorescence, excitation wavelength is 360nm, and emission wavelength is 460nm. More fully the substrate deacetylated, more higher the fluorescence induced. In the absence of inhibitors, the fluorescence value is taken as the control; when inhibitor is existed, fluorescence value induced will be reduced, while in the case no enzyme is existed (corresponding to the completely inhibition of enzyme activity) the fluorescence value is blank. Generally, after suppression the fluorescence values will be between the control and blank. When analysis is made, blank will be used as 0, and the control will be used as 1. Smaller value means higher inhibitory activity. 1. Add Assay buffer, diluted trichostatin A and test inhibitor to appropriate wells of the microtiter plate. Following table lists the amounts used for each regent of various assay types.
2. Add diluted HeLa nucleoprotein extract to all wells except those that are marked as "blank". 3. Allow diluted Fluor de Lys™ Substrate and the samples in the microtiter plate to equilibrate to 25°C. 4. Initiate HDAC reactions by adding diluted substrate (25 µl) to each well and mixing thoroughly. 5. Allow reactions to proceed for 30 minutes and then stop them by addition of Fluor de Lys™ Developer (50 µl). Incubate plate at room temperature (25°C) for 10-15 min. 6. Read fluorescence of samples on a microtiter-plate reading fluorimeter at a excitation wavelength of 369 nm and a emitted wavelength of 451 nm.

Class I HDAC = assay: HDAC subtype selectivity reporter gene assay (P21 reporter, HeLa cells); format: cell-based; settings: Homo sapiens; 10µM; HeLa cells, 24 hours; read-out: Class I HDAC (P21 reporter assay) Fold Induction at 10µM
Description: Different HDAC subtypes can bind with different transcriptional factors and involve in expression regulation of various genes. Suitable regulation elements for transcriptional factors are selected to construct reporter genes, which can be used to evaluate the selective inhibition of inhibors on HDAC subtypes. Briefly, HeLa cells were seeded in 96-well plates the day before transfection to give a confluence of 50-80% when transfection. Cells were transfected with one of reporter gene plasmid containing a p21-promoter sequence or response element upstream of a luciferase gene construct using FuGene6 transfection reagent according to the manufacturer's instruction (Roche). For normalizing the transfection efficiency, a GFP expression plasmid was cotransfected. After 24 hours compounds or the vehicle control (DMSO) were added. 24 hours later the cells were harvested and lysed, and the amount of the luciferase was evaluated using luciferase assay kits (Promega) according to the manufacturer's instructions.

T1 sequence (P09619 33-1106): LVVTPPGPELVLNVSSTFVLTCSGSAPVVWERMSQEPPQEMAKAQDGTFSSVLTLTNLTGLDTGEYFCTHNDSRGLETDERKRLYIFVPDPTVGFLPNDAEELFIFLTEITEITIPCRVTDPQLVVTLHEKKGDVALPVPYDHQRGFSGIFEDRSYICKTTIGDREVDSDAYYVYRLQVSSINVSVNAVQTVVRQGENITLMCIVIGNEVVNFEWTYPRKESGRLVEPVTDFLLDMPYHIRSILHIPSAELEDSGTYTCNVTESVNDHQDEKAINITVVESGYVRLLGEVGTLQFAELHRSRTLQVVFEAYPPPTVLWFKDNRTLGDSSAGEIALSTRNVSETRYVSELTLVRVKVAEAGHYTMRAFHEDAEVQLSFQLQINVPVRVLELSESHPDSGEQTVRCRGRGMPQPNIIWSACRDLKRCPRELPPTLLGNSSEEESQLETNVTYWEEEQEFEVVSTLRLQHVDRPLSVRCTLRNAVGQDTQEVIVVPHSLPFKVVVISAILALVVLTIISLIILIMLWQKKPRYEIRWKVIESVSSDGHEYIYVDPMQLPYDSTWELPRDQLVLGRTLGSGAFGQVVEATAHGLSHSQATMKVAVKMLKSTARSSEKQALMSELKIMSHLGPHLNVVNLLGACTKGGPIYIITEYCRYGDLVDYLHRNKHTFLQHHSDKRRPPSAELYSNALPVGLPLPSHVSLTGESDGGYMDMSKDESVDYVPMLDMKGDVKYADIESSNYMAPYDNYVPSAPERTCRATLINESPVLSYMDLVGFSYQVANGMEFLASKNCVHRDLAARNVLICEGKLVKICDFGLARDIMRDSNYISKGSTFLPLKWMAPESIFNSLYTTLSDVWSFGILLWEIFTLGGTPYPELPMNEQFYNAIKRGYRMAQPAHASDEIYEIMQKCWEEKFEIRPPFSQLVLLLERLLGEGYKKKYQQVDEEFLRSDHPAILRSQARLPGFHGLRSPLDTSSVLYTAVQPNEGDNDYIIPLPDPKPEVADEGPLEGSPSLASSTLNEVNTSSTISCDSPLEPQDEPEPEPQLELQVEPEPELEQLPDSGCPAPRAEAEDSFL

Row | Compound | IC50 (human PDGFRβ) | IC50 (HUVEC cells) | % inhibition of total HDAC enzyme activity at 30µM (total HDAC enzyme) | fold induction at 10 µM (Class I HDAC)
1 | Nc1ccccc1NC(=O)c1cccc2cc(Oc3ccnc4cc(Cl)ccc34)ccc12 [Compound 41, N-(2-aminophenyl)-6-(7-chloroquinolin-4-yloxy)-1-naphthamide] | 0.479 µM | 0.105 µM | 19.3% | 1.1
2 | Nc1ccccc1NC(=O)c1ccc(CNC(=O)c2cccc3cc(Oc4ccnc5c(C(F)(F)F)cccc45)ccc23)cc1 [Compound 44] |  | 1 µM | 35.1% | 3.2
3 | COc1ccc(NC(=O)c2cccc3cc(Oc4ncnc5cc(OC)c(OC)cc45)ccc23)c(N)c1 [Compound 19, N-(2-amino-4-methoxyphenyl)-6-(6,7-dimethoxyquinazolin-4-yloxy)-1-naphthamide] | 0.011 µM | 0.023 µM | 21.9% | 1.4
4 | Nc1ccccc1NC(=O)c1ccc(CNC(=O)c2cccc3cc(Oc4ccnc5cc(Cl)ccc45)ccc23)cc1 [Compound 43, N-(4-((2-aminophenyl)carbamoyl)benzyl)-6-(7-chloroquinolin-4-yloxy)-1-naphthamide] |  | 0.288 µM | 38.7% | 6.1
5 | COc1cc2ncnc(Oc3ccc4c(C(=O)Nc5ccc(Br)cc5N)cccc4c3)c2cc1OC [Compound 21, N-(2-amino-4-bromophenyl)-6-(6,7-dimethoxyquinazolin-4-yloxy)-1-naphthamide] | 0.019 µM | 0.005 µM | 18.6% | 1.1
6 | COc1cc2ncnc(Oc3ccc4c(C(=O)Nc5ccc(Cl)cc5N)cccc4c3)c2cc1OC [Compound 20, N-(2-amino-4-chlorophenyl)-6-(6,7-dimethoxyquinazolin-4-yloxy)-1-naphthamide] | 0.023 µM | 0.006 µM | 21.9% | 1.5
7 | COc1cc2ncnc(Oc3ccc4c(C(=O)Nc5ccc(C)cc5N)cccc4c3)c2cc1OC [Compound 18, N-(2-amino-4-methylphenyl)-6-(6,7-dimethoxyquinazolin-4-yloxy)-1-naphthamide] | 0.015 µM | 0.007 µM | 17.1% | 1.1
8 | COc1cc2ncnc(Oc3ccc4c(C(=O)Nc5ccc(C(F)(F)F)cc5N)cccc4c3)c2cc1OC [Compound 22, N-(2-amino-4-trifluoromethylphenyl)-6-(6,7-dimethoxyquinazolin-4-yloxy)-1-naphthamide] | 0.372 µM | 0.003 µM | 17% | 1.1
9 | Nc1ccccc1NC(=O)c1cccc2cc(Oc3ccnc4ccccc34)ccc12 [Compound 39, N-(2-aminophenyl)-6-(quinolin-4-yloxy)-1-naphthamide] | 0.032 µM | 0.107 µM | 15.9% | 1.2
10 | Cc1cccc2c(Oc3ccc4c(C(=O)Nc5ccccc5N)cccc4c3)ccnc12 [Compound 40, N-(2-aminophenyl)-6-(8-methylquinolin-4-yloxy)-1-naphthamide] |  | 1 µM | 22.2% | 1.3
11 | Nc1ccccc1NC(=O)c1cccc2cc(Oc3ccnc4c(C(F)(F)F)cccc34)ccc12 [Compound 42, N-(2-aminophenyl)-6-(8-trifluoromethylquinolin-4-yloxy)-1-naphthamide] | 0.048 µM | 1 µM | 6.2% | 1.3
